Test results from patent publication US20060258535A1, “METHOD OF USING SODIUM CARBONATE PEROXYHYDRATE AS AN HERBICIDE” (BIOSAFE SYSTEMS L.L.C.,, priority 2005, published 2006).

Experiments:
[1] = tested on: algae, bacteria, fungi, viruses and bryophyte plant material such as mosses, liverworts, hornworts, lichens; experiment: 1% spray solution on simple celled plant material; assay type: in vivo
Description: The pH of the resulting solution is typically alkaline, which activates the H2O2 for bleaching. The dry powder contains about 30% by weight w/w H2O2 and finds specialty use as a wood brightener and general cleaning aid.

[2] = EPA determination; cited from earlier work
[3] = EPA determination; cited from earlier work; remark: listed apart in the source
[4] = tested on: most types of plant material; experiment: Spray solution over the tops of growing plant material; assay type: in vivo; conditions: diluted in water, sprayed over the tops of growing plant material, no foam
[5] = EPA determination; cited from earlier work; remark: listed apart in the source
[6] = EPA determination, cited from earlier work

In the case of O=C([O-])[O-].O=C([O-])[O-].OO.OO.OO.[Na+].[Na+].[Na+].[Na+] [sodium carbonate peroxyhydrate], the “effect on simple celled plant material” value [1] is given as “kill on contact”, the eye damage [2] is given as “severe irreversible eye damage” and the dermal sensitizer [3] is given as “not considered a dermal sensitizer”. The “phytotoxicity effects of spray solution” value [4] was “minimal with some plant cell necrosis”, the dermal irritation [5] was “Dermal irritation also occurred” and the “toxicity, dermal exposure” value ([6]; dermal exposure) was “minimal to mild toxicity”. For the same compound, the “toxicity, oral exposure” value ([6]; oral exposure) was “minimal to mild toxicity”.
